Here are results for 2 molecules from patent publication US20230114728A1 (Venatorx Pharmaceuticals, Inc., priority 2019, published 2023).

Converted amounts (≈) assume the structure as drawn.

Assay [1] concerns P. aeruginosa (ΔmexAB-oprM). Put plainly: Broth microdilution MIC in CAMHB. The class given is cell-based. To be noted: Pseudomonas aeruginosa, read-out: Minimum Inhibitory Concentration, P. aeruginosa ΔmexAB-OprM. The procedure, abridged:
(§1)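 MIC, read by eye, is the lowest compound concentration giving no bacterial growth after 16-20 h at 37° C. Test compounds are serially diluted 2-fold in CAMHB and seeded with 2-8×10^5 CFU/mL of bacteria taken from a 3-5 h shaking culture, following CLSI methods.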
On the technique in general: In broth dilution the organism is exposed to a series of concentrations in liquid medium.

For the next assay, the system named is E. coli ATCC 25922. Put plainly: Broth microdilution MIC in CAMHB. To be noted: Escherichia coli, ATCC25922; E. coli ATCC 25922; MHB; read-out: Minimum Inhibitory Concentration, E. coli 25922. The assay is classed as cell-based. Put shortly: as §1
Assay [2] has as its system K. pneumoniae 848844 producing SHV-11 and KPC-2. Put plainly: Broth microdilution MIC in CAMHB. To be noted: Klebsiella pneumoniae, read-out: Minimum Inhibitory Concentration, K. pneumoniae 848844. The assay is classed as cell-based. Put shortly: as §1
Another assay concerns P. aeruginosa ATCC 27853. Put plainly: Broth microdilution MIC in CAMHB. The class given is cell-based. To be noted: Pseudomonas aeruginosa, ATCC27853; MHB; read-out: Minimum Inhibitory Concentration, P. aeruginosa ATCC 27853. The procedure, abridged:
as §1

A further assay concerns E. coli D22. Put plainly: Broth microdilution MIC in CAMHB. The assay is classed as cell-based. To be noted: Escherichia coli; E. coli D22 (hyper-permeable); MHB; read-out: Minimum Inhibitory Concentration, E. coli D22. Put shortly: as §1
The subject of another assay is E. coli AG100. The experiment in a line: Broth microdilution MIC in CAMHB. The assay is classed as cell-based. To be noted: Escherichia coli; E. coli AG100 (wild-type parent); MHB; read-out: Minimum Inhibitory Concentration, E. coli AG100. The procedure, abridged:
as §1

The next assay has as its system E. coli AG100A. Put plainly: Broth microdilution MIC in CAMHB. The assay is classed as cell-based. To be noted: Escherichia coli, read-out: Minimum Inhibitory Concentration, E. coli AG100A. Put shortly: as §1
In assay [3] the test system is K. pneumoniae UMM producing SHV-5 and KPC-2. The experiment in a line: Broth microdilution MIC in CAMHB. The class given is cell-based. To be noted: Klebsiella pneumoniae, read-out: Minimum Inhibitory Concentration, K. pneumoniae UMM. The procedure, abridged:
as §1

Another assay has as its target T1, P. aeruginosa PBP3 (Pseudomonas aeruginosa, UniProt G3XD46).
T1 construct: made in house
The experiment in a line: Bocillin-FL fluorescence polarization competition binding assay, P. aeruginosa PBP3. To be noted: fluorescence polarization competition binding assay using Bocillin-FL. Put shortly:
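Binding of boronic acid inhibitors to purified Pseudomonas aeruginosa (PA01) PBP3 was measured by fluorescence polarization competition with Bocillin-FL, a fluorescent penicillin V. Reactions of 80 μl contained 0.75 μM PBP3 and 0.1 μM Bocillin-FL in 50 mM Hepes (pH 8.0), 300 mM NaCl and 5% (v/v) glycerol, in black 384-well plates. FP (Excitation 490 nm, Emission 520 nm) was read for up to 60 minutes. EC50 is the concentration that halves PBP-bound Bocillin-FL.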
(In general: Fluorescence polarisation rises when a labelled molecule tumbles more slowly, as on binding a larger partner.)

T1 sequence (G3XD46 whole entry): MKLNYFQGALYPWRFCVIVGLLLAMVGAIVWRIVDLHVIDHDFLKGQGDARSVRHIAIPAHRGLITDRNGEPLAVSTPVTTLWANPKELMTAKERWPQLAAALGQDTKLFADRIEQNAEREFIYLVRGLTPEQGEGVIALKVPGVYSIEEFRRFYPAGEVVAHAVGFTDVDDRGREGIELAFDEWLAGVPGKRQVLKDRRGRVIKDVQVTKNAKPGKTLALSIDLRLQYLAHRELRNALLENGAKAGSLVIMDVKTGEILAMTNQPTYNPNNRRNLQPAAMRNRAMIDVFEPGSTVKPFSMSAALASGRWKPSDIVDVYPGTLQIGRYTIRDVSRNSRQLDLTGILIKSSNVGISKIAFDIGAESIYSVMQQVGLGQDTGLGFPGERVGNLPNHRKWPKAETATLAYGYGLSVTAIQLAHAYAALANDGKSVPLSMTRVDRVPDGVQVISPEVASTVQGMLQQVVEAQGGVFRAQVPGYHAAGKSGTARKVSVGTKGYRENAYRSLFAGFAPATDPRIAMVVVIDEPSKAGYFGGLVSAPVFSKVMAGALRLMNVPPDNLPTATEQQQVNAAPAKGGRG

As for `O=C(O)c1cccc2c1OB(O)[C@@H](NC(=O)C(NC(=O)N1CCN(C3CNC3)C(=O)C1=O)c1c(F)cc(O)cc1F)C2` (stereo partly drawn) [Example 212, (3R)-3-(2-(4-(azetidin-3-yl)-2,3-dioxopiperazine-1-carboxamido)-2-(2,6-difluoro-4-hydroxyphenyl)acetamido)-2-hydroxy-3,4-dihydro-2H-benzo[e][1,2]oxaborinine-8-carboxylic acid], the MIC in assay [1] is 8 to 16 µg/mL (≈ 13.6 to 27.2 µM); in the assay on E. coli ATCC 25922 it was 8 to 16 µg/mL (≈ 13.6 to 27.2 µM); in assay [2] it was 32 to 64 µg/mL (≈ 54.5 to 109 µM); in the assay on P. aeruginosa ATCC 27853, more than 128 µg/mL; in the assay with E. coli D22, 2 to 4 µg/mL (≈ 3.41 to 6.81 µM); in the assay on E. coli AG100 it was 8 to 16 µg/mL (≈ 13.6 to 27.2 µM). Further, the MIC in the assay with E. coli AG100A lay in the range of 2 to 4 µg/mL (≈ 3.41 to 6.81 µM); in [3], 8 to 16 µg/mL (≈ 13.6 to 27.2 µM). In addition, the “P. aeruginosa PBP3 Potency” value at P. aeruginosa PBP3 is on record as “D (D represents a potency <10 μM)”.
As to `CCN1CCN(C(=O)NC(C(=O)N[C@H]2Cc3cccc(C(=O)O)c3OB2O)c2c(F)cc(NC(=O)NC)cc2F)C(=O)C1=O` (stereo partly drawn) [Example 213, (3R)-3-(2-(2,6-difluoro-4-(3-methylureido)phenyl)-2-(4-ethyl-2,3-dioxopiperazine-1-carboxamido)acetamido)-2-hydroxy-3,4-dihydro-2H-benzo[e][1,2]oxaborinine-8-carboxylic acid], the MIC in assay [1] was 2 to 4 µg/mL (≈ 3.24 to 6.49 µM); with E. coli ATCC 25922 it was 32 to 64 µg/mL (≈ 51.9 to 104 µM); in assay [2], more than 128 µg/mL; in the assay on P. aeruginosa ATCC 27853 it was more than 128 µg/mL; in the assay with E. coli D22, 2 to 4 µg/mL (≈ 3.24 to 6.49 µM); in the assay on E. coli AG100, 32 to 64 µg/mL (≈ 51.9 to 104 µM). The results for the MIC (in the assay on E. coli AG100A; in assay [3]) were 2 to 4 µg/mL (≈ 3.24 to 6.49 µM) and 32 to 64 µg/mL (≈ 51.9 to 104 µM), respectively. Moreover, the “P. aeruginosa PBP3 Potency” value on P. aeruginosa PBP3 is on record as “D (D represents a potency <10 μM)”.
